The test system of data set [1] is NQO1 enzymatic activity (Nrf2 transcriptional activity). The experiment in a line: NQO1 enzyme activity assay in Hepa1c1c7 cells. Type of data set: cell-based, mouse. The note with it: Hepa1c1c7, 24 h.
The subject of data set [2] is Hepa1c1c7 mouse hepatoma cells. The data set can be described thus: Cytotoxicity seen in the NQO1 assay. Type of data set: cell-based.
Another data set can be described thus: physchem. The note with it: pH 7.4.
For data set [3], the target named is Keap1 Kelch domain protein (Homo sapiens, UniProt Q14145). The note with it: 10 μM compound, 5 μM Keap1; Ti Keap1 + vehicle 61.3 °C.
The conditions of data set [4]: PAMPA, pH 7.4. (The PAMPA barrier holds no transporters, so it reflects passive diffusion.)
The test system of data set [5] is ARPE19 retinal pigment epithelial cells. Conditions: human.
The nature of another data set: in vitro. The note with it: human, Cytotoxicity IC50 concentration.

Values after ≈ are worked out from the molar mass of the structure shown. Where a name gives a salt, the structure may show the parent alone. Some results are limits rather than exact numbers.

Chain of Keap1 Kelch domain protein (Q14145 321-609 limits assumed): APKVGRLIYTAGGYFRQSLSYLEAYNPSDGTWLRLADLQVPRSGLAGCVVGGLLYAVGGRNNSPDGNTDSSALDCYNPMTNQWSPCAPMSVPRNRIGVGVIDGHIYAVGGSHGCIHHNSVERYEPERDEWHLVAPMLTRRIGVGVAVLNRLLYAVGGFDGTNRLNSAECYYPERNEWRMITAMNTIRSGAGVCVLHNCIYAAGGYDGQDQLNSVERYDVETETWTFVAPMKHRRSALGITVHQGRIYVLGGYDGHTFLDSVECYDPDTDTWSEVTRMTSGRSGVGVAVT

For the compound `COC(=O)[C@]12CCC(C)(C)C[C@H]1[C@H]1C(=O)C=C3[C@@]4(C)C=C(C#N)C(=O)C(C)(C)[C@@H]4CC[C@@]3(C)[C@]1(C)CC2` [CDDO-Me, bardoxolone methyl], the “NQO1 induction, concentration-response” value in data set [1] is on record as “Dose-dependent induction”. Besides, in data set [2], the “Concentration above which cytotoxic in NQO1 assay” value is given as “higher than 1 μM”.

As a reminder, the solubility is the dissolved amount per volume that the medium holds. A higher solubility goes with much dissolved substance. `COc1ccc(S(=O)(=O)N(CC(=O)O)c2ccc(N(CC(=O)O)S(=O)(=O)c3ccc(OC)cc3)c(OC)c2)cc1` [Compound 10, 2,2′-((2-Methoxy-1,4-phenylene)bis(((4-methoxyphenyl)sulfonyl)azanediyl))diacetic Acid] showed a solubility in the data set “physchem” of 271 µg/mL (≈ 456 µM).

As for `COc1ccc(S(=O)(=O)N(CC(=O)O)c2ccc(N(CC(=O)O)S(=O)(=O)c3ccc(OC)cc3)c(OCc3ccccc3)c2)cc1` [Compound 11, 2,2′-((2-(Benzyloxy)-1,4-phenylene)bis(((4-methoxyphenyl)sulfonyl)azanediyl))diacetic Acid], in “physchem”, the solubility was 348 µg/mL (≈ 519 µM). The solubility values of the last two compounds are within 1.5-fold of each other.

For the compound `CCOc1cc(N(CC(=O)O)S(=O)(=O)c2ccc(OC)cc2)ccc1N(CC(=O)O)S(=O)(=O)c1ccc(OC)cc1` [Compound 31, 2,2′-((2-Ethoxy-1,4-phenylene)bis(((4-methoxyphenyl)sulfonyl)azanediyl))diacetic Acid], the solubility in the data set “physchem” was found to be 337 µg/mL (≈ 554 µM). This solubility and that of the compound before are within 1.5-fold of each other.

For `CCCCOc1cc(N(CC(=O)O)S(=O)(=O)c2ccc(OC)cc2)ccc1N(CC(=O)O)S(=O)(=O)c1ccc(OC)cc1` [Compound 32, 2,2′-((2-Butoxy-1,4-phenylene)bis(((4-methoxyphenyl)sulfonyl)azanediyl))diacetic Acid], the concentration in solution in “physchem” (solubility) was 362 µg/mL (≈ 569 µM).

In the data set “physchem”, `COc1ccc(S(=O)(=O)N(CC(=O)O)c2ccc(N(CC(=O)O)S(=O)(=O)c3ccc(OC)cc3)c(Oc3ccccc3)c2)cc1` [Compound 33, 2,2′-((2-Phenoxy-1,4-phenylene)bis(((4-methoxyphenyl)sulfonyl)azanediyl))diacetic Acid] yielded a solubility of 363 µg/mL (≈ 553 µM).

Take `COc1ccc(S(=O)(=O)N(CC(=O)O)c2ccc(N(CC(=O)O)S(=O)(=O)c3ccc(OC)cc3)c(-c3ccccc3)c2)cc1` [Compound 34, 2,2′-([1,1′-Biphenyl]-2,5-diylbis(((4-methoxyphenyl)sulfonyl)azanediyl))diacetic Acid]: the “DSF ΔTi” value in data set [3] is 0.1–1.2 °C. Further, the concentration in solution in the data set “physchem” (solubility) was 298 µg/mL (≈ 465 µM).

`CCCOc1cc(N(CC(=O)O)S(=O)(=O)c2ccc(OC)cc2)ccc1N(CC(=O)O)S(=O)(=O)c1ccc(OC)cc1` [Compound 36, 2,2′-((2-Propoxy-1,4-phenylene)bis(((4-methoxyphenyl)sulfonyl)azanediyl))diacetic Acid] showed a solubility in the data set “physchem” of 347 µg/mL (≈ 557 µM).

In the case of `COc1ccc(S(=O)(=O)N(CC(=O)O)c2ccc(N(CC(=O)O)S(=O)(=O)c3ccc(OC)cc3)c(OC(C)C)c2)cc1` [Compound 37, 2,2′-((2-Isopropoxy-1,4-phenylene)bis(((4-methoxyphenyl)sulfonyl)azanediyl))diacetic Acid], in data set [4], the “logPe (permeability coefficient)” value is recorded as -4.74. In addition, the solubility in the data set “physchem” amounted to 288 µg/mL (≈ 463 µM).

Turning to `COc1ccc(S(=O)(=O)N(CC(=O)O)c2ccc(N(CC(=O)O)S(=O)(=O)c3ccc(OC)cc3)c(OCc3cccc(OC)c3)c2)cc1` [Compound 38, 2,2′-((2-((3-Methoxybenzyl)oxy)-1,4-phenylene)bis(((4-methoxyphenyl)sulfonyl)azanediyl))diacetic Acid], the concentration in solution in “physchem” (solubility) came to 379 µg/mL (≈ 541 µM).

Compound `COc1ccc(S(=O)(=O)N(CC(=O)O)c2ccc(N(CC(=O)O)S(=O)(=O)c3ccc(OC)cc3)c(O)c2)cc1` [Compound 39, 2,2′-((2-Hydroxy-1,4-phenylene)bis(((4-methoxyphenyl)sulfonyl)azanediyl))diacetic Acid] yielded a solubility in “physchem” of 343 µg/mL (≈ 591 µM).

In the case of `COc1ccc(S(=O)(=O)N(CC(N)=O)c2ccc(N(CC(N)=O)S(=O)(=O)c3ccc(OC)cc3)c(OCc3ccccc3)c2)cc1` [Compound 40, 2,2′-((2-(Benzyloxy)-1,4-phenylene)bis(((4-methoxyphenyl)sulfonyl)azanediyl))diacetamide], the solubility in “physchem” is under 50 µg/mL.

Take `COc1ccc(S(=O)(=O)N(CC#N)c2ccc(N(CC#N)S(=O)(=O)c3ccc(OC)cc3)c(OCc3ccccc3)c2)cc1` [Compound 41, N,N′-[2-(Benzyloxy)-1,4-phenylene]bis[N-(cyanomethyl)-4-methoxybenzenesulfonamide]]: the “logPe (permeability coefficient)” value in data set [4] is on record as -4.19. In addition, the solubility in the data set “physchem” was under 50 µg/mL.

The compound `COc1ccc(S(=O)(=O)N(Cc2nnn[nH]2)c2ccc(N(Cc3nnn[nH]3)S(=O)(=O)c3ccc(OC)cc3)c(OCc3ccccc3)c2)cc1` [Compound 42, N-((1H-Tetrazol-5-yl)methyl)-N-(4-((N-((1H-tetrazol-5-yl)methyl)-4-methoxyphenyl)sulfonamido)-2-(benzyloxy)phenyl)-4-methoxybenzenesulfonamide] came in with a solubility in the data set “physchem” of under 50 µg/mL.

Regarding `COc1ccc(S(=O)(=O)N(Cc2nnn[nH]2)c2ccc(N(CC(=O)O)S(=O)(=O)c3ccc(OC)cc3)c(OCc3ccccc3)c2)cc1` [Compound 51, N-(4-((N-((1H-Tetrazol-5-yl)methyl)-4-methoxyphenyl)sulfonamido)-2-(benzyloxy)phenyl)-N-((4-methoxyphenyl)sulfonyl)glycine], in the data set “physchem”, the solubility came to 254 µg/mL (≈ 366 µM).

`COc1ccc(S(=O)(=O)N(CC(=O)O)c2ccc(N(Cc3nnn[nH]3)S(=O)(=O)c3ccc(OC)cc3)c(OCc3ccccc3)c2)cc1` [Compound 52, N-(4-((N-((1H-Tetrazol-5-yl)methyl)-4-methoxyphenyl)sulfonamido)-3-(benzyloxy)phenyl)-N-((4-methoxyphenyl)sulfonyl)glycine] displayed a solubility in the data set “physchem” of 256 µg/mL (≈ 368 µM). The solubility values of the last two compounds are within 1.5-fold of each other.

Turning to `COC(=O)/C=C/C(=O)OC` [DMF, dimethyl fumarate], the “NQO1 induction, concentration-response” value in data set [1] was “Dose-dependent induction”.

The term IC50 denotes the point on the concentration scale where inhibition reaches its midpoint. A low value points to inhibition by little substance. Consider `C[S+]([O-])CCCCN=C=S` (centres unmarked) [Sulforaphane, sulforaphane], for which the IC50 is about 10 µM in data set [5] and 9.89 ± 2.91 µM in “in vitro”.

For the origin of these results see PMC9150106, “Phenyl Bis-Sulfonamide Keap1-Nrf2 Protein–Protein Interaction Inhibitors with an Alternative Binding Mode” (Journal of Medicinal Chemistry, 2022).
